{"source": "paper PMC9779727", "about": "“Identification of Novel Artemisinin Hybrids Induce Apoptosis and Ferroptosis in MCF-7 Cells” (International Journal of Molecular Sciences, 2022)", "key": {"[1]": {"system": "breast cancer MDA-MB-231 cells", "test": "MTT antiproliferation assay, MDA-MB-231", "assay_type": "cell-based, human", "conditions": "48 h, means ± SD, n = 3", "excerpt": "(§1) The target hybrids A1–A15 were screened for their antiproliferation activities against five human cancer cell lines (lung cancer A549 cells, breast cancer MCF-7 and MDA-MB-231 cells, colon cancer HCT116 cells and ovarian cancer SK-OV-3 cells) in vitro by the standard MTT method, and 5-fluorouracil (5-FU) and ART were coassayed as controls. […] Therefore, the most promising hybrid, A8, was chosen for further exploration of the preliminary mechanism of MCF-7 cell antiproliferation.\n(§2) Cytotoxicity of test compounds against five different tumor cell lines were evaluated using an MTT assay in vitro. Cells were seeded into 96-well plates at a density of 5 × 10^4 cells per well and stabilized at 37 °C with 5% CO2 for 24 h. Compounds A1–A15, ART and 5-FU were added to each well at various concentrations and then the cells were incubated for 48 h. The MTT solution (100 μL 0.5 mg/mL^−1) was added to each well, and the cells were incubated for another 4 h. Then, 150 μL DMSO was added to each well and the absorbance of samples was measured at 492 nm. The IC50 values were calculated according to Logit method after getting the inhibitory rate."}, "[2]": {"system": "ovarian cancer SK-OV-3 cells", "test": "MTT antiproliferation assay, SK-OV-3", "assay_type": "cell-based, human", "conditions": "48 h, means ± SD, n = 3", "excerpt": "as §1, §2"}, "MCF-7 cells [3]": {"system": "MCF-7 cells", "test": "JC-1 mitochondrial membrane potential assay", "assay_type": "cell-based, human", "conditions": "48 h, control 7.85%", "protocol": "JC-1 staining was also performed to explore the change in mitochondrial membrane potential (MMP), which could induce apoptosis.\nMCF-7 cells were plated at 1 × 10^6 cells per well in 24-well plates and incubated with compound A8 at various concentrations (0, 2.5, 5 and 10 μM) for 48 h. Subsequently, the cells were incubated with JC-1 dye and finally analyzed by flow cytometry (Beckman Coulter cytoFLEX, USA)."}, "lung cancer A549 cells": {"system": "lung cancer A549 cells", "test": "MTT antiproliferation assay, A549", "assay_type": "cell-based, human", "conditions": "48 h, means ± SD, n = 3", "excerpt": "as §1, §2"}, "MCF-7 cells [4]": {"system": "MCF-7 cells", "test": "GSH level detection", "assay_type": "cell-based, human", "excerpt": "We also determined the effect of A8 on the expression of GSH and MDA (lipid peroxidation).\nLipid peroxidation assay kit (Beyotime, Shanghai, China) was used to detect malonaldehyde (MDA), together with GSH level assay, present in samples, as per the manufacturer’s instruction with slight modifications."}, "MCF-7 cells [5]": {"system": "MCF-7 cells", "test": "Intracellular ROS generation (DCFH-DA, flow cytometry)", "assay_type": "cell-based, human", "conditions": "MCF-7, 0, 2.5, 5 and 10 μM, 48 h", "protocol": "First, we detected ROS levels using DFCH-DA.\nROS production was detected by using the peroxide-sensitive fluorescent probe DCFH-DA. After treatment with different concentrations of A8 for 48 h, the cells were incubated with 10 μg/mL DCFH-DA at 37 °C for 20 min. Then, cells were harvested. Samples were analyzed by flow cytometry (FACS Calibur, Becton-Dickinson, East Rutherford, NJ, USA)."}, "CYP3A4": {"molecular_target": "T1, CYP3A4 (Homo sapiens, UniProt P08684)", "T1 construct": "from tissue; host or cells: human liver microsomes", "T1 sequence (P08684 whole entry)": "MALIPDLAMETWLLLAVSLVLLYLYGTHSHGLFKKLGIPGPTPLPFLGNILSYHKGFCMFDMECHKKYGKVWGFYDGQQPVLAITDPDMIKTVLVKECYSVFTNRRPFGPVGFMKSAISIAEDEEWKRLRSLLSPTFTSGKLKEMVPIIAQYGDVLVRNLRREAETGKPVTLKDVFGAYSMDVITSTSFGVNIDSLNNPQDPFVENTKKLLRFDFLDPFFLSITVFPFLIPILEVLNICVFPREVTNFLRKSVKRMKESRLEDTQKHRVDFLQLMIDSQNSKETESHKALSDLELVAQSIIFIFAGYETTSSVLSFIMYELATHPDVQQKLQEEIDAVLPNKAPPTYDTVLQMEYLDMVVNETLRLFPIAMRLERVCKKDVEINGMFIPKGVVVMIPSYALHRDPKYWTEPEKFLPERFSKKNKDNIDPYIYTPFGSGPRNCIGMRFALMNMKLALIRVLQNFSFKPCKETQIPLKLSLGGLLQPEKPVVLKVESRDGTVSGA", "test": "CYPs inhibition assay, CYP3A4", "assay_type": "in vitro ADME", "protocol": "Finally, we evaluated the interaction between the hybrid A8 and five major metabolic enzymes (CYP1A2, CYP2C9, CYP2C19, CYP2D6 and CYP3A4) in the human body. […] It is also one of the directions for our further transformation and optimization.\nCytochrome P450 inhibition was evaluated in human liver microsomes (0.253 mg/mL) using five […] (CYP1A2, α-Naphthoflavone; CYP2C9, Sulfaphenazole; CYP2C19, Benzylnirvanol; CYP2D6, Quinidine; and CYP3A4, Ketoconazole.) in the presence of compound A8 (10 μM). After preincubation for 10 min at 37 °C, an NADPH-regenerating system was added. After the mixed system was incubated for 15 min at 37 °C, the reaction was stopped by adding 400 μL of cold stop solution (200 ng/mL tolbutamide and 200 ng/mL labetalol in acetonitrile). Then, the mixture was centrifuged, and the supernatant was analyzed by LC-MS/MS."}, "MCF-7 cells [6]": {"system": "MCF-7 cells", "test": "TUNEL staining", "assay_type": "cell-based, human", "conditions": "MCF-7, varying concentrations", "protocol": "(§3) To investigate whether hybrid A8 exerts an antitumor effect on MCF-7 cells by inducing apoptosis, an annexin V-FITC/PI binding assay was performed. MCF-7 cells were treated with vehicle or various concentrations (2.5, 5 and 10 μM) of hybrid A8 for 48 h and were then stained with FITC-annexin V and propidium iodide (PI). The percentages of apoptotic MCF-7 cells were determined by flow cytometry. A8-induced apoptosis in a dose-dependent manner. The percentages of total apoptotic cells (Q1-UR + Q1-LR) were 17.99% (2.5 μM), 35.98% (5 μM) and 48.65% (10 μM). […] In addition, obvious changes in cell morphology were also observed.\nThe slides were immersed in 4% paraformaldehyde (pH 7.4) for 25 min at room temperature and then washed with PBS 3 times. The cells were immersed in 0.1% Triton X-100 solution prepared with PBS for 10 min (operation on ice) and then washed twice with PBS. Dilute 5 × equilibration buffer with deionized water and 100 μL 1 × equilibration buffer was added to each climbing tablet to cover the sample area to be tested, then incubated at room temperature for 15 min. […] The water-absorbent paper was used to absorb the liquid on the climbing sheet, and the sealing liquid containing anti fluorescence quenching agent was used to seal the film, and then the images were observed and collected under the fluorescence microscope."}, "MCF-7 cells [7]": {"system": "MCF-7 cells", "test": "Annexin V-FITC/PI apoptosis assay (flow cytometry)", "assay_type": "cell-based, human", "conditions": "48 h", "protocol": "as §3\nCells apoptosis was assessed using Annexin V/PI staining assay. MCF-7 cells were seeded into 6-well plates for 24 h and then treated with compound A8 at various concentrations (0, 2.5, 5 and 10 μM) for 48 h. Then, cells were collected, washed with 500 μL annexin-binding buffer and stained with 5 μL annexin V-FITC and 5 μL PI for 15 min at 25 °C. After that, the samples were analyzed by flow cytometry (Beckman Coulter cytoFLEX, Brea, CA, USA)."}}}
{"smiles": "CC1CCC2C(C)C(OC(=O)CCC(=O)NCc3nnc(Nc4ccc(F)cc4F)o3)OC3OC4(C)CCC1C32OO4", "note": "(centres unmarked) [A8]", "values": [{"measurement": "IC50", "setting": "[1]", "result": "5.27 ± 0.02", "unit": "µM"}, {"measurement": "IC50", "setting": "[2]", "result": "7.15 ± 0.95", "unit": "µM"}, {"measurement": "proportion of MCF-7 cells with depolarized mitochondria (Q1-LR)", "setting": "MCF-7 cells [3]; 2.5 μM", "result": 19.45, "unit": "%"}, {"measurement": "proportion of MCF-7 cells with depolarized mitochondria (Q1-LR)", "setting": "MCF-7 cells [3]; 5 μM", "result": 36.90, "unit": "%"}, {"measurement": "proportion of MCF-7 cells with depolarized mitochondria (Q1-LR)", "setting": "MCF-7 cells [3]; 10 μM", "result": 48.70, "unit": "%"}, {"measurement": "IC50", "setting": "lung cancer A549 cells", "result": "7.7 ± 0.36", "unit": "µM"}, {"measurement": "GSH level (in words)", "setting": "MCF-7 cells [4]", "result": "decreased significantly"}, {"measurement": "ROS fluorescence intensity (in words)", "setting": "MCF-7 cells [5]", "result": "increased significantly with increasing drug concentration"}, {"measurement": "inhibitory effect on CYP3A4 (in words)", "setting": "CYP3A4; 10 μM", "result": "moderate inhibitory effect"}, {"measurement": "Inhibition at 10 μM (%) CYP3A4", "setting": "CYP3A4; human liver microsomes", "result": 55.8, "unit": "%"}, {"measurement": "number of cells that emitted red fluorescence (apoptotic cells), TUNEL (in words)", "setting": "MCF-7 cells [6]", "result": "increased as the administration concentration increased"}, {"measurement": "percentage of total apoptotic cells (Q1-UR + Q1-LR)", "setting": "MCF-7 cells [7]; MCF-7, 2.5 μM", "result": 17.99, "unit": "%"}, {"measurement": "percentage of total apoptotic cells (Q1-UR + Q1-LR)", "setting": "MCF-7 cells [7]; MCF-7, 5 μM", "result": 35.98, "unit": "%"}, {"measurement": "percentage of total apoptotic cells (Q1-UR + Q1-LR)", "setting": "MCF-7 cells [7]; MCF-7, 10 μM", "result": 48.65, "unit": "%"}]}
